Patent US12544382B2, “2, 4, 6-tri-substituted pyrimidine compound as ATR kinase inhibitor” (BEIJING TIDE PHARMACEUTICAL CO., LTD., priority 2019, dated 2026)

Columns and labels:
[1] = test system: TOV21G (ovarian cancer) cells; assay: In vitro cell proliferation inhibition assay (CellTiter-Glo), TOV21G; format: cell-based, human; conditions: 120 hours
Description: (§1) By detecting the effect of compound on cell activity in vitro in the tumor cell lines TOV21G (ovarian cancer) and MV4-11 (leukemia), the effect of compound inhibiting cell proliferation was studied in this assay.
(§2) TOV21G cells and MV4-11 cells were purchased from American Type Culture Collection (ATCC).
TOV21G cells were cultured in MCDB105/M199 medium (containing 15% […]), and used for testing when the cell confluence reaches 85% or more. Each well of a 96-well culture plate was inoculated with about 1000 cells, cultured for 24 hours, and treated with different concentrations (0-10 μM) of compound solution to be tested in triplex. Blank wells (contains medium only) and control wells (seeded cells was not treated with drug) were set. Cells were cultured for 120 hours, 40 μL Cell Titer-Glo solution (Promega, #G7573) were added to each well, incubated with shaking for 20 min in the dark, 100 μL solution was transferred from each well to a 96-well white plate (Corning, #3917), and the luminescence value was read by Biotek Synergy H1 multifunctional microplate reader.

[2] = test system: MV4-11 (leukemia) cells; assay: In vitro cell proliferation inhibition assay (CellTiter-Glo), MV4-11; format: cell-based, human; conditions: MV4-11 cells
Description: as §1, §2
MV-4-11 cells were cultured in IMDM medium (containing 20% FBS), each well of a 96-well culture plate was inoculated with about 10000 cells, and treated with different concentrations (0-10 μM) of compounds to be tested in triplex. Blank wells (containing medium only) and control wells (inoculated with cells but not treated with drug) were set. Cells were cultured for 120 hours, 40 μL Cell Titer-Glo solution was added to each well, incubated with shaking for 20 min in the dark, 100 μL solution was transferred from each well to a 96-well white plate, and the luminescence value was read by Biotek Synergy H1 multifunctional microplate reader. Inhibition rate (%)=100%×(control well−test well)/(control well−blank well)

[3] = target: ATR kinase (Homo sapiens (Human), UniProt Q13535); assay: ATR kinase activity assay (time-resolved fluorescence, p53 substrate phosphorylation); format: biochemical
Description: Biotinylated protein derived from p53 (Eurofins, art. No.: 14-952) was phosphorylated with ATR kinase. The amount of phosphorylated protein was determined by time-resolved fluorescence in this assay. The amount of phosphorylated protein was detected by anti-p53-phospho-(serine 15)-K-specific antibody (Cisbio, art. No.: 61GSTDLA) and d2 labeled anti-GST antibody (Cisbio, art. No. 61P08KAE). Before the experiment, the following working solution was prepared as required: 1× reaction buffer (20 mM HEPES PH8.0, 1% glycerol, 0.01% Brij-35), dilution buffer (20 mM HEPES PH8.0, 1% glycerol, 0.01% Brij-35, 5 mM DTT and 1% BSA), stop solution (20 mM HEPES PH8.0, 1% glycerol, 0.01% Brij-35, 250 mM EDTA), detection buffer (50 mM HEPES pH7.0, 150 mM NaCl, 267 mM KF, 0.1% sodium cholate, 0.01% Tween-20, 0.0125% sodium azide). The reagents used above are purchased from Sigma or Invitrogen, except for those where the manufacturer was mentioned.
Operations are as follows:
4× gradient dilution of compound solutions was prepared with 1× reaction buffer to obtain 9 compound solutions of different concentrations, and 2.5 μL 4× gradient dilution of compound solutions was added to a 384-well analysis plate (784075, Greiner). 4× p53 substrate working solution (40 nM) was prepared with 1× reaction buffer, and 2.5 μL 4× p53 substrate working solution was added to the 384-well analysis plate. 4×ATR/ATRIP working solution (12.8 ng/μL) was prepared with dilution buffer, and 2.5 μL 4×pATR/ATRIP working solution was added to the 384-well analysis plate. 4×ATP working solution (2 mM) was prepared with deionized water, 2.5 μL 4×ATP working solution was added to the 384-well analysis plate, and incubated at room temperature in dark for 30 minutes. 5 μL stop solution was added to the 384 analysis plate. Finally, 5 μL test mixture (0.084 ng/μL Anti-phospho-p53(ser15)-K and 5 ng/μL Anti-GST-d2) was added to the 384 well analysis plate, incubated overnight at room temperature, and the fluorescence signal was detected with ENVISION (Perkinelmer) instrument (excitation wavelength: 320 nm, emission wavelength: 665 nm and 615 nm). The inhibition rate in each well was calculated by the fluorescence intensity value of each hole: ER (Emission Ratio)=(Fluorescence intensity at 665 nm/Fluorescence intensity at 615 nm); inhibition rate=(ER positive-ER test compound)/(ER positive-ER negative)×100%, the IC50 value of compounds were calculated by standard parameter fitting software (GraphPad Prism 6.0).

ATR kinase, sequence (Q13535 whole entry): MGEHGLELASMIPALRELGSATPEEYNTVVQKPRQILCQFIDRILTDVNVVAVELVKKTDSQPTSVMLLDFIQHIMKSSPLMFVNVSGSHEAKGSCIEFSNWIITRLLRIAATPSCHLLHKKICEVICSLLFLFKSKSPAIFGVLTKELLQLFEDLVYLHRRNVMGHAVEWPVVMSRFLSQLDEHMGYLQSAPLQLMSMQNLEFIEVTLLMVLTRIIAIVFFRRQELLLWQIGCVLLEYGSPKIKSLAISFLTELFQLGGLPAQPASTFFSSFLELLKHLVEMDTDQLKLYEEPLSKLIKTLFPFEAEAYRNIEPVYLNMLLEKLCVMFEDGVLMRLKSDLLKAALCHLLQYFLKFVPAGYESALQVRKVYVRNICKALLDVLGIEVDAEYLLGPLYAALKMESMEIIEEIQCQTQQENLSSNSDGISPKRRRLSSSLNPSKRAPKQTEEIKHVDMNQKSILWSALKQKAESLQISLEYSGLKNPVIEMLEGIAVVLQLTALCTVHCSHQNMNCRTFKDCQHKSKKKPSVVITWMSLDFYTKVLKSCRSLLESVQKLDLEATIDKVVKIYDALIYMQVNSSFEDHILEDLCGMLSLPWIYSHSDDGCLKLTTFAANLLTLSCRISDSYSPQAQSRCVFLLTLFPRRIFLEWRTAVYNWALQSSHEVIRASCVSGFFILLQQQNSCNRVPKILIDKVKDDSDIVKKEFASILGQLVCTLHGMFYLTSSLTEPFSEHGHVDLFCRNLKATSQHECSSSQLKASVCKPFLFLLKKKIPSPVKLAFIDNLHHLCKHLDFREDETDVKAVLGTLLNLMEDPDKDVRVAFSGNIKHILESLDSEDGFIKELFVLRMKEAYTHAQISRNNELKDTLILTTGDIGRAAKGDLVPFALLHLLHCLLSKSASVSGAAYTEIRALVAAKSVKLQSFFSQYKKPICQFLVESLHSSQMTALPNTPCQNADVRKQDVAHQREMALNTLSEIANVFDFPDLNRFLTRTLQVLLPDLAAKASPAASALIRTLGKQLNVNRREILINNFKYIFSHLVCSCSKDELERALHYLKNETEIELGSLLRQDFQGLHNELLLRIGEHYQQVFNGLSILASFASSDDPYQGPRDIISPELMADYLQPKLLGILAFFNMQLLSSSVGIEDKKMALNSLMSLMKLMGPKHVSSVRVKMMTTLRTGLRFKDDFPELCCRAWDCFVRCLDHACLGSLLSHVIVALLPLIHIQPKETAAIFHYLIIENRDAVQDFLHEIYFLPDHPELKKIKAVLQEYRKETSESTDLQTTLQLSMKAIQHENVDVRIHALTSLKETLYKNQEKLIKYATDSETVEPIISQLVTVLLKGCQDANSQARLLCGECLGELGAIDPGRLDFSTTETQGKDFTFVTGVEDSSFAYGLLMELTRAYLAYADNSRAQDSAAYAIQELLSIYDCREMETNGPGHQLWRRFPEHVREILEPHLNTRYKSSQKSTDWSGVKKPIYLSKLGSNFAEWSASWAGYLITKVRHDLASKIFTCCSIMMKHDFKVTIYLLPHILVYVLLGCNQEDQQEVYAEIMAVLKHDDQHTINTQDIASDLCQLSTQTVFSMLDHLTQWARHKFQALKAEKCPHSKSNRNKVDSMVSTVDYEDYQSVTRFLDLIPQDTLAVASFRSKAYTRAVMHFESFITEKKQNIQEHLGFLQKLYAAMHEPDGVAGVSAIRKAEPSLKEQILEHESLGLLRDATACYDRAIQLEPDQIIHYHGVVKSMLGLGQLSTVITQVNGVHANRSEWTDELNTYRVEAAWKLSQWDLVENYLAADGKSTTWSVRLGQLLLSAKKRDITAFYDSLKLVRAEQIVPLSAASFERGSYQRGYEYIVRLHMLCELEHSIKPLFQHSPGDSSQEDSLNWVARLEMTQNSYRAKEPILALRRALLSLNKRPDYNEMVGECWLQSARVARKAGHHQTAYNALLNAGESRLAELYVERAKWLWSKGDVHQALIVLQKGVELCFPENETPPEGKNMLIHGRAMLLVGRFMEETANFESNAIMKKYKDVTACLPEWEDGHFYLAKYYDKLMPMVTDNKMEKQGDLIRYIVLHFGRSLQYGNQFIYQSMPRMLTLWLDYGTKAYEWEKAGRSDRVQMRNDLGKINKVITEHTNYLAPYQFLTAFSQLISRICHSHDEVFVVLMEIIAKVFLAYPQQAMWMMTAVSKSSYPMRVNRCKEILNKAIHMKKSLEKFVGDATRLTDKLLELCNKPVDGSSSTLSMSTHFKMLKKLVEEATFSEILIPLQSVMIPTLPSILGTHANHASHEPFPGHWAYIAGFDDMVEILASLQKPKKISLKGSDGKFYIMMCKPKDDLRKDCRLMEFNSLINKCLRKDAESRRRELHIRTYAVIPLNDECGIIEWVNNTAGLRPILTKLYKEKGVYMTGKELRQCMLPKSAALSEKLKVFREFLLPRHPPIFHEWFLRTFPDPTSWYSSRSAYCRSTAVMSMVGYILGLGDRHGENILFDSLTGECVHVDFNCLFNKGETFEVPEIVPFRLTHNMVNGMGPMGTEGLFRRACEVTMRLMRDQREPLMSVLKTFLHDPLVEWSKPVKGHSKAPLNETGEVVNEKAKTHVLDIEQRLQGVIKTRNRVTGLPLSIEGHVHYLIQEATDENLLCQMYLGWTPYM
ATR kinase, sequence (Q8WXE1 whole entry partner): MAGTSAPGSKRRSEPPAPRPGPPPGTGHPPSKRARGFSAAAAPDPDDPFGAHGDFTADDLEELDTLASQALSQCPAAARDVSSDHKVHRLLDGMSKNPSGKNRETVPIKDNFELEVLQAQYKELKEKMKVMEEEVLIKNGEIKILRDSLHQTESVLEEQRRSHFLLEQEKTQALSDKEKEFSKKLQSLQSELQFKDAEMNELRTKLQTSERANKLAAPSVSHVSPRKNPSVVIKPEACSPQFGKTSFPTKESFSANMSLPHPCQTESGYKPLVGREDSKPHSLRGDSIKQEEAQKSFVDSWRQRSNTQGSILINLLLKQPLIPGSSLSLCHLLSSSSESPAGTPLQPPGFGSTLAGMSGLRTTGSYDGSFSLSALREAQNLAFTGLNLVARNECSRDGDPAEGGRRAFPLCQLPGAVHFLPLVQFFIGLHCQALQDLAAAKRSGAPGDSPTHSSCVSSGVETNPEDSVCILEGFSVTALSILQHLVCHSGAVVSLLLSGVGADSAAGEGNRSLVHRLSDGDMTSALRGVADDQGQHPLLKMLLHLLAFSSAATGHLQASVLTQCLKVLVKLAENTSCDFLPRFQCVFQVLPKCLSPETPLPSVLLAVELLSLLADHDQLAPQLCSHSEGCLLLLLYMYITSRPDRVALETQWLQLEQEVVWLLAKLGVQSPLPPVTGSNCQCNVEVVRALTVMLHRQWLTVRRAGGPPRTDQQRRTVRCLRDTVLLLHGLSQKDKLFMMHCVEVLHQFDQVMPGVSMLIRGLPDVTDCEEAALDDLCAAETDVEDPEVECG

Cc1c(-c2cc(N3CCOC[C@H]3C)nc(-c3ccnc4[nH]ccc34)n2)c(C(F)(F)F)nn1C1CCCNC1 (single isomer, unassigned) [Compound D13]
IC50 ([1]; Homo sapiens): 800 nM | IC50 ([2]; Homo sapiens, MV4-11, 120 h): 250 nM | IC50 [3]: < 1 nM

Cc1c(-c2cc(N3CCOC[C@H]3C)nc(-c3ccnc4[nH]ccc34)n2)c(C(F)(F)F)nn1C1CCNCC1 [Compound D2]
IC50 ([1]; Homo sapiens): 920 nM | IC50 ([2]; Homo sapiens, MV4-11, 120 h): 780 nM | IC50 [3]: 6 nM

COc1cc(-c2nc(-c3c(C)nn(C4CCNCC4)c3C(F)(F)F)cc(N3CCOC[C@H]3C)n2)c2cc[nH]c2n1 [Compound D3]
IC50 [1]: 280 nM | IC50 ([2]; 120 hours): 290 nM | IC50 [3]: 31 nM

Cc1nn(C2CCN(C)CC2)c(C)c1-c1cc(N2CCOC[C@H]2C)nc(-c2ccnc3[nH]ccc23)n1 [Compound D4]
IC50 [1]: 330 nM | IC50 ([2]; 120 hours): 190 nM | IC50 [3]: 6 nM

Cc1nn(C2CCNCC2)c(C(F)(F)F)c1-c1cc(N2CCOC[C@H]2C)nc(-n2c(N)nc3ccccc32)n1 [Compound D6]
IC50 ([1]; Homo sapiens): 240 nM | IC50 ([2]; Homo sapiens, MV4-11, 120 h): 170 nM | IC50 [3]: < 1 nM

Cc1nn(C2CCNCC2)c(C(F)(F)F)c1-c1cc(N2CCOC[C@H]2C)nc(-n2c(N)nc3cc(F)ccc32)n1 [Compound D7]
IC50 ([1]; Homo sapiens): 460 nM | IC50 ([2]; Homo sapiens, MV4-11, 120 h): 310 nM | IC50 [3]: 1 nM

CC(=O)Nc1nc2ccccc2n1-c1nc(-c2c(C)nn(C3CCNCC3)c2C(F)(F)F)cc(N2CCOC[C@H]2C)n1 [Compound D8]
IC50 ([1]; Homo sapiens): 430 nM | IC50 ([2]; Homo sapiens, MV4-11, 120 h): 220 nM | IC50 [3]: 3 nM

CNc1nc2cc(F)ccc2n1-c1nc(-c2c(C)nn(C3CCNCC3)c2C(F)(F)F)cc(N2CCOC[C@H]2C)n1 [Compound D10]
IC50 ([1]; Homo sapiens): 380 nM | IC50 ([2]; Homo sapiens, MV4-11, 120 h): 330 nM | IC50 [3]: 3 nM

Cc1nn(C2CCNCC2)c(C(F)(F)F)c1-c1nc(-c2ccnc3[nH]ccc23)nc(N2CCOC[C@H]2C)c1F [Compound D11]
IC50 [1]: 640 nM | IC50 ([2]; 120 hours): 370 nM | IC50 [3]: 8 nM

Cc1c(-c2cc(N3CCOC[C@H]3C)nc(-c3ccnc4[nH]ccc34)n2)c(C(F)(F)F)nn1C1CCCNC1 (stereo partly shown) [Compound D12]
IC50 ([1]; Homo sapiens): 280 nM | IC50 ([2]; Homo sapiens, MV4-11, 120 h): 290 nM | IC50 [3]: 3 nM

COc1c(-c2cc(N3CCOC[C@H]3C)nc(-c3ccnc4[nH]ccc34)n2)c(C(F)(F)F)nn1C1CCN(C)CC1 [Compound D14]
IC50 ([1]; Homo sapiens): 1200 nM | IC50 ([2]; Homo sapiens, MV4-11, 120 h): 810 nM | IC50 [3]: 28 nM

CNc1nc2cc(F)ccc2n1-c1nc(-c2c(C(F)(F)F)nn(C3CCNCC3)c2C)cc(N2CCOC[C@H]2C)n1 [Compound D16]
IC50 [1]: 1050 nM | IC50 ([2]; 120 hours): 1360 nM | IC50 [3]: 82 nM

Cc1c(-c2cc(N3CCOC[C@H]3C)nc(-c3cccc4[nH]ccc34)n2)c(C(F)(F)F)nn1C1CCNCC1 [Compound D18]
IC50 ([1]; Homo sapiens): 510 nM | IC50 ([2]; Homo sapiens, MV4-11, 120 h): 280 nM | IC50 [3]: < 1 nM

Cc1nn(C2CCNCC2)c(C(F)(F)F)c1-c1cc(N2CCOC[C@H]2C)nc(-c2cncc3[nH]ccc23)n1 [Compound D19]
IC50 ([1]; Homo sapiens): 110 nM | IC50 ([2]; Homo sapiens, MV4-11, 120 h): 80 nM | IC50 [3]: 1 nM

Cc1c(-c2cc(N3CCOC[C@H]3C)nc(-c3cncc4[nH]ccc34)n2)c(C(F)(F)F)nn1C1CCNCC1 [Compound D20]
IC50 ([1]; Homo sapiens): 160 nM | IC50 ([2]; Homo sapiens, MV4-11, 120 h): 70 nM | IC50 [3]: < 1 nM

Cc1nn(C2CCNCC2)c(C(F)(F)F)c1-c1cc(N2CCOC[C@H]2C)nc(-n2c(NC(=O)C3CC3)nc3ccccc32)n1 [Compound D21]
IC50 ([1]; Homo sapiens): 140 nM | IC50 ([2]; Homo sapiens, MV4-11, 120 h): 190 nM | IC50 [3]: 2 nM

CNc1nc2ccc(F)cc2n1-c1nc(-c2c(C)nn(C3CCNCC3)c2C(F)(F)F)cc(N2CCOC[C@H]2C)n1 [Compound D22]
IC50 ([1]; Homo sapiens): 850 nM | IC50 ([2]; Homo sapiens, MV4-11, 120 h): 920 nM | IC50 [3]: 16 nM

CCNc1nc2cc(F)ccc2n1-c1nc(-c2c(C)nn(C3CCNCC3)c2C(F)(F)F)cc(N2CCOC[C@H]2C)n1 [Compound D23]
IC50 [1]: 580 nM | IC50 ([2]; 120 hours): 690 nM | IC50 [3]: 8 nM

CNc1nc2cc(Cl)ccc2n1-c1nc(-c2c(C)nn(C3CCNCC3)c2C(F)(F)F)cc(N2CCOC[C@H]2C)n1 [Compound D25]
IC50 ([1]; Homo sapiens): 1030 nM | IC50 ([2]; Homo sapiens, MV4-11, 120 h): 990 nM

CNc1nc2ncccc2n1-c1nc(-c2c(C)nn(C3CCNCC3)c2C(F)(F)F)cc(N2CCOC[C@H]2C)n1 [Compound D26]
IC50 [1]: 3580 nM | IC50 ([2]; 120 hours): 3090 nM | IC50 [3]: 12 nM

CNc1nc2cc(F)ccc2n1-c1nc(-c2c(C)nn(C3CCNCC3)c2C(F)(F)F)c(F)c(N2CCOC[C@H]2C)n1 [Compound D27]
IC50 [1]: 720 nM | IC50 ([2]; 120 hours): 970 nM | IC50 [3]: 8 nM

Cc1nn(C2CCNCC2)c(C(F)(F)F)c1-c1cc(N2CCOC[C@H]2C)nc(-n2cnc3cc(F)ccc32)n1 [Compound D30a]
IC50 [1]: 2090 nM | IC50 ([2]; 120 hours): 410 nM | IC50 [3]: 16 nM

Cc1nn(C2CCNCC2)c(C(F)(F)F)c1-c1cc(N2CCOC[C@H]2C)nc(-n2cnc3ccc(F)cc32)n1 [Compound D30b]
IC50 [1]: 2220 nM | IC50 ([2]; 120 hours): 330 nM | IC50 [3]: 54 nM

CNc1nc2cc(F)ccc2n1-c1nc(-c2c(C(F)(F)F)nn(C3CCCNC3)c2C)cc(N2CCOC[C@H]2C)n1 (stereo partly shown) [Compound D33]
IC50 [1]: 1450 nM | IC50 ([2]; 120 hours): 1310 nM | IC50 [3]: 13 nM

Cc1nn(C2CCNCC2)c(C(F)(F)F)c1-c1cc(N2CCOC[C@H]2C)nc(-n2c(NC(=O)C3CC3)nc3ccccc32)n1 [Compound D38]
IC50 [1]: 140 nM | IC50 ([2]; 120 hours): 230 nM | IC50 [3]: 5 nM

CNc1nc2cc(F)ccc2n1-c1nc(-c2c(C)nn(CC3CCCNC3)c2C(F)(F)F)cc(N2CCOC[C@H]2C)n1 (stereo partly shown) [Compound D39]
IC50 ([1]; Homo sapiens): 860 nM | IC50 ([2]; Homo sapiens, MV4-11, 120 h): 1230 nM | IC50 [3]: 3 nM

CNc1nc2ccccc2n1-c1nc(-c2c(C)nn(CC3CCCNC3)c2C(F)(F)F)cc(N2CCOC[C@H]2C)n1 (stereo partly shown) [Compound D40]
IC50 ([1]; Homo sapiens): 720 nM | IC50 ([2]; Homo sapiens, MV4-11, 120 h): 580 nM | IC50 [3]: 5 nM

CNc1nc2cc(F)ccc2n1-c1nc(-c2c(C)nn(CS(C)(=O)=O)c2C(F)(F)F)cc(N2CCOC[C@H]2C)n1 [Compound D41]
IC50 ([1]; Homo sapiens): 940 nM | IC50 ([2]; Homo sapiens, MV4-11, 120 h): 570 nM | IC50 [3]: 29 nM

Cc1c(-c2cc(N3CCOC[C@H]3C)nc(-c3cc(F)cc4[nH]ccc34)n2)c(C(F)(F)F)nn1C1CC2(CNC2)C1 [Compound D50]
IC50 ([2]; 120 hours): 810 nM | IC50 [3]: 3 nM
